Assays:
[1] = tested on: Vero cells; assay: Cytotoxicity MTT assay in Vero cells (MNTD, CC50); type: cell-based, African green monkey; details: Table S1; Vero cells
[2] = tested on: CHIKV DRDE-07; assay: In vitro screening against CHIKV (CPE inhibition and MTT cell viability); type: cell-based, chikungunya virus; details: Table S1, CHIKV-infected Vero cells; for % Cell viability: 72 hpi, MTT assay; for CPE: arbitrary score of cytopathic effect at >48 hpi

Row | Compound | MNTD [1] | % Cell viability [2] | CPE [2]
1 | COc1ccc(/C(=N\NC(=O)c2cccnc2)c2ccccc2)cc1 [DCR48, (Z)-N'-((4-methoxyphenyl)(phenyl)methylene)nicotinohydrazide] | 31.25 µM | 20.87% | ++++ (>60% (++++))
2 | C/C(=N\NC(=O)c1ccncc1)c1ccccc1O [DCR49, (E)-N'-(1-(2-hydroxyphenyl)ethylidene)isonicotinohydrazide] | 62.5 µM | 48.9% | +++ (60-50% (+++))
3 | C/C(=N\NC(=O)c1ccncc1)c1ccc(O)cc1 [DCR50, (E)-N'-(1-(4-hydroxyphenyl)ethylidene)isonicotinohydrazide] | 62.5 µM | 18.01% | ++++ (>60% (++++))
4 | C/C(=N\NC(=O)c1ccncc1)c1ccccc1N [DCR51, (E)-2-(1-(2-isonicotinoylhydrazono)ethyl)benzenaminium] | 62.5 µM | -2.93% | ++++ (>60% (++++))
5 | C/C(=N\NC(=O)c1ccncc1)c1c(O)ccc2ccccc12 [DCR52, N'-[(1E)-1-(2-hydroxynaphthalen-1-yl)ethylidene]pyridine-4-carbohydrazide] | 31.25 µM | 30.87% | ++++ (>60% (++++))
6 | COc1ccc(/C(=N\NC(=O)c2ccncc2)c2ccccc2)cc1 [DCR53, N'-[(1Z)-(4-methoxyphenyl)(phenyl)methylidene]pyridine-4-carbohydrazide] | 31.25 µM | 11.42% | ++++ (>60% (++++))
7 | O=C(c1cccnc1)n1nc(-c2ccc(O)cc2)cc1-c1ccc(Cl)cc1Cl [DCR54, 4-[5-(2,4-dichlorophenyl)-1-(pyridine-3-carbonyl)-1H-pyrazol-3-yl]phenol] | 15.62 µM | 8.73% | ++++ (>60% (++++))
8 | O=C(c1cccnc1)n1nc(-c2ccc(O)cc2)cc1-c1ccccc1 [DCR55, 4-[5-phenyl-1-(pyridine-3-carbonyl)-1H-pyrazol-3-yl]phenol] | 31.25 µM | 17.69% | ++++ (>60% (++++))
9 | Cc1ccc(-c2cc(-c3ccc(O)cc3)nn2C(=O)c2cccnc2)cc1 [DCR56, 4-[5-(4-methylphenyl)-1-(pyridine-3-carbonyl)-1H-pyrazol-3-yl]phenol] | 31.25 µM | 24.2% | ++++ (>60% (++++))
10 | Cc1ccc(-c2cc(-c3ccc(O)cc3)nn2C(=O)c2cccnc2)cc1 [DCR57, 4-[5-(4-methylphenyl)-1-(pyridine-3-carbonyl)-1H-pyrazol-3-yl]phenol] | 31.25 µM | 24.84% | ++++ (>60% (++++))
11 | CCOc1ccc(-c2cc(-c3ccc(O)cc3)nn2C(=O)c2cccnc2)cc1OC [DCR58, 4-[5-(4-ethoxy-3-methoxyphenyl)-1-(pyridine-3-carbonyl)-1H-pyrazol-3-yl]phenol] | 15.62 µM | 8.17% | ++++ (>60% (++++))
12 | CCOc1cc(-c2cc(-c3ccc(O)cc3)nn2C(=O)c2cccnc2)ccc1O [DCR59, 2-ethoxy-4-[3-(4-hydroxyphenyl)-1-(pyridine-3-carbonyl)-1H-pyrazol-5-yl]phenol] | 15.62 µM | 49.1% | +++ (60-50% (+++))
13 | COc1cc(-c2cc(-c3ccc(O)cc3)nn2C(=O)c2cccnc2)cc(OC)c1OC [DCR60, 4-[1-(pyridine-3-carbonyl)-5-(3,4,5-trimethoxyphenyl)-1H-pyrazol-3-yl]phenol] | 31.25 µM | -3.41% | ++++ (>60% (++++))
14 | COc1ccc(Br)cc1-c1cc(-c2ccc(O)cc2)nn1C(=O)c1cccnc1 [DCR61, 4-[5-(5-bromo-2-methoxyphenyl)-1-(pyridine-3-carbonyl)-1H-pyrazol-3-yl]phenol] | 31.25 µM | 12.22% | ++++ (>60% (++++))
15 | O=C(O)c1ccc(-c2cc(-c3ccc(O)cc3)nn2C(=O)c2cccnc2)cc1 [DCR62, 4-[3-(4-hydroxyphenyl)-1-(pyridine-3-carbonyl)-1H-pyrazol-5-yl]benzoic acid] | 31.25 µM | -27.93% | ++++ (>60% (++++))
16 | O=C(c1cccnc1)n1nc(-c2ccc(O)cc2)cc1-c1cccc([N+](=O)[O-])c1 [DCR63, 4-[5-(3-nitrophenyl)-1-(pyridine-3-carbonyl)-1H-pyrazol-3-yl]phenol] | 31.25 µM | -4.2% | ++++ (>60% (++++))
17 | O=C1NC(c2ccc(Cl)cc2)c2c(ccc3ccccc23)O1 (stereo not drawn) [DCR64, 1-(4-chlorophenyl)-1H,2H,3H-naphtho[1,2-e][1,3]oxazin-3-one] | 31.25 µM | -3.8% | ++++ (>60% (++++))
18 | O=C1NC(c2ccc(F)cc2)c2c(ccc3ccccc23)O1 (stereo not drawn) [DCR65, 1-(4-fluorophenyl)-1H,2H,3H-naphtho[1,2-e][1,3]oxazin-3-one] | 53.27 µM | 12.63% | ++++ (>60% (++++))

Row | Compound | MNTD [1] | % Cell viability [2] | CPE [2]
19 | Cc1ccc(C2NC(=O)Oc3ccc4ccccc4c32)cc1 (stereo not drawn) [DCR66, 1-(4-methylphenyl)-1H,2H,3H-naphtho[1,2-e][1,3]oxazin-3-one] | 54 µM | 12.24% | ++++ (>60% (++++))
20 | O=C1NC(c2cccc(Cl)c2)c2c(ccc3ccccc23)O1 (stereo not drawn) [DCR67, 1-(3-chlorophenyl)-1H,2H,3H-naphtho[1,2-e][1,3]oxazin-3-one] | 50.44 µM | 10.94% | ++++ (>60% (++++))
21 | O=C1NC(c2cccc(Cl)c2)c2c(ccc3ccccc23)O1 (stereo not drawn) [DCR68, 1-(3-chlorophenyl)-1H,2H,3H-naphtho[1,2-e][1,3]oxazin-3-one] | 53.27 µM | 10.84% | ++++ (>60% (++++))
22 | CCOc1ccc(C2NC(=O)Oc3ccc4ccccc4c32)cc1 (stereo not drawn) [DCR69, 1-(4-ethoxyphenyl)-1H,2H,3H-naphtho[1,2-e][1,3]oxazin-3-one] | 195.71 µM | 7.61% | ++++ (>60% (++++))
23 | O=C1NC(c2ccc(C(F)(F)F)cc2)c2c(ccc3ccccc23)O1 (stereo not drawn) [DCR70, 1-[4-(trifluoromethyl)phenyl]-1H,2H,3H-naphtho[1,2-e][1,3]oxazin-3-one] | 45.44 µM | 10.59% | ++++ (>60% (++++))
24 | O=C1NC(c2ccc(OC(F)(F)F)cc2)c2c(ccc3ccccc23)O1 (stereo not drawn) [DCR71, 1-[4-(trifluoromethoxy)phenyl]-1H,2H,3H-naphtho[1,2-e][1,3]oxazin-3-one] | 43.42 µM | 7.44% | ++++ (>60% (++++))
25 | CCOc1ccc(C2NC(=O)NC(C)=C2C(=O)OCCN(C)C)cc1 (stereo not drawn) [DCR72, 2-(dimethylamino)ethyl 4-(4-ethoxyphenyl)-6-methyl-2-oxo-1,2,3,4-tetrahydropyrimidine-5-carboxylate] | 31.25 µM | 25.42% | ++++ (>60% (++++))
26 | CC1=C(C(=O)OCCN(C)C)C(c2ccc([N+](=O)[O-])cc2)NC(=O)N1 (stereo not drawn) [DCR73, 2-(dimethylamino)ethyl 6-methyl-4-(4-nitrophenyl)-2-oxo-1,2,3,4-tetrahydropyrimidine-5-carboxylate] | 31.25 µM | 24.54% | ++++ (>60% (++++))
27 | CC1=C(C(=O)OCCN(C)C)C(c2ccc(C)cc2)NC(=O)N1 (stereo not drawn) [DCR74, 2-(dimethylamino)ethyl 6-methyl-4-(4-methylphenyl)-2-oxo-1,2,3,4-tetrahydropyrimidine-5-carboxylate] | 31.25 µM | 12.75% | ++++ (>60% (++++))
28 | CCOc1ccc(C2NC(=O)NC(C)=C2C(=O)OCC[N+](C)(C)C)cc1 (stereo not drawn) [DCR75, {2-[4-(4-ethoxyphenyl)-6-methyl-2-oxo-1,2,3,4-tetrahydropyrimidine-5-carbonyloxy]ethyl}trimethylazanium] | 31.25 µM | 10.21% | ++++ (>60% (++++))
29 | COc1ccc(-c2nc(CC(C)=O)no2)cc1 [DCR76, 1-[5-(4-methoxyphenyl)-1,2,4-oxadiazol-3-yl]propan-2-one] | 125 µM | 19.42% | ++++ (>60% (++++))
30 | CC(=O)Cc1noc(-c2ccc([N+](=O)[O-])cc2)n1 [DCR77, 1-[5-(4-nitrophenyl)-1,2,4-oxadiazol-3-yl]propan-2-one] | 125 µM | 10.43% | ++++ (>60% (++++))
31 | CC(=O)Cc1noc(-c2ccccc2)n1 [DCR78, 1-(5-phenyl-1,2,4-oxadiazol-3-yl)propan-2-one] | 125 µM | 17.32% | ++++ (>60% (++++))
32 | CC(=O)Cc1noc(C(c2ccccc2)c2ccccc2)n1 [DCR79, 1-[5-(diphenylmethyl)-1,2,4-oxadiazol-3-yl]propan-2-one] | 125 µM | 16.42% | ++++ (>60% (++++))
33 | CC(=O)Cc1noc(C2CCCCC2)n1 [DCR80, 1-(5-cyclohexyl-1,2,4-oxadiazol-3-yl)propan-2-one] | 125 µM | 29.64% | ++++ (>60% (++++))
34 | CC(=O)Cc1noc(-c2cccc([N+](=O)[O-])c2)n1 [DCR81, 1-[5-(3-nitrophenyl)-1,2,4-oxadiazol-3-yl]propan-2-one] | 125 µM | 0% | ++++ (>60% (++++))
35 | CC(=O)Cc1noc(-c2ccncc2)n1 [DCR82, 1-[5-(pyridin-4-yl)-1,2,4-oxadiazol-3-yl]propan-2-one] | 125 µM | 14.42% | ++++ (>60% (++++))
36 | CC(=O)Cc1noc(-c2cc(Cl)ccc2Cl)n1 [DCR83, 1-[5-(2,5-dichlorophenyl)-1,2,4-oxadiazol-3-yl]propan-2-one] | 230.55 µM | 10.49% | ++++ (>60% (++++))
